In patent US9409905B2, “Antibacterial compounds and methods for use” (PTC THERAPEUTICS, INC., priority 2011, dated 2016) one finds MIC data, which are given here for seven compounds.

In brackets after ≈: the same amount, converted by molar mass. Bounds are passed on as bounds.

Test [1] concerns E. coli ELZ4000. Put plainly: Antibacterial activity, MIC, multi-drug resistant clinical isolate (Table 3). In kind it is cell-based. The conditions noted are these: Escherichia coli, ELZ4000, read-out: MIC ELZ4000. From the text: (§1) The antibacterial activity from a microbroth dilution method may be presented as the minimum inhibitory concentration (MIC in μg/mL). The MIC value is the lowest concentration of drug which prevents macroscopically visible growth under test conditions.
(§2) Antibacterial activity of test compounds against E. coli ELZ4000 and E. coli ELZ4251 multi-drug resistant clinical isolates is shown in Table 3.

For test [2], the system named is E. coli ELZ4251. The description is as above. The test is classed as cell-based. The note with it: Escherichia coli.
Excerpt: as §1, §2

Test [3] has as its system Pseudomonas aeruginosa (P. aeruginosa) 27853. Put plainly: Antibacterial activity, MIC (Table 5). In kind it is cell-based. The conditions noted are these: P. aeruginosa 27853, read-out: MIC, 27853. The method in brief: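 Using a microbroth dilution format, the minimum inhibitory concentration was recorded as the lowest tested concentration that stopped visible bacterial growth, expressed in μg/mL.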

Test [4] concerns E. coli LZ3111. Put plainly: Antibacterial activity, MIC, quinolone resistant strain (Table 2). In kind it is cell-based. The conditions noted are these: Escherichia coli, LZ3111, read-out: MIC LZ3111. The method in brief:
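Growth inhibition assessed by serial drug dilution in broth; endpoint was absence of macroscopically visible growth, reported as MIC, μg/mL.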

The test system of test [5] is Escherichia coli (E. coli) BAS849. Description: Antibacterial activity, microbroth dilution MIC (Table 1). In kind it is cell-based. The conditions noted are these: microbroth dilution, super sensitive Gram-negative E. coli BAS849, read-out: MIC, BAS849. In a few lines: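 Values are MICs (μg/mL): the smallest drug amount at which macroscopically visible bacterial growth is absent under assay conditions, from a microdilution method in broth.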

In test [6] the test system is Staphylococcus aureus (S. aureus) 29213. The test is described as above. The conditions noted are these: microbroth dilution, Gram-positive S. aureus 29213, read-out: MIC, 29213. The test is classed as cell-based. In a few lines: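 In a microbroth dilution test, the minimum inhibitory concentration was defined as the lowest compound level preventing growth seen by eye, and was given in μg/mL.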

Test [7] has as its system E. coli 25922. Described as above. In kind it is cell-based, Escherichia coli. The note with it: Escherichia coli; microbroth dilution; control Gram-negative E. coli 25922 strain; read-out: MIC, 25922. In a few lines:
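Using broth microdilution, MIC endpoints (μg/mL) mark where visible growth no longer appears; the panel spans sensitive and control Gram-negative strains plus a Gram-positive strain.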

In test [8] the test system is Klebsiella pneumoniae (K. pneumoniae) 35657. Put plainly: Antibacterial activity, MIC (Table 4). The note with it: K. pneumoniae 35657, read-out: MIC, 35657. The test is classed as cell-based. In a few lines: (§3)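 Values are minimum inhibitory concentrations in μg/mL from broth microdilution, meaning no macroscopically visible growth at that concentration. Resistant MXX isolates are multi-drug resistant clinical strains.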

Test [9] concerns Acinetobacter baumannii (A. baumannii) BAA747. Put plainly: Antibacterial activity, MIC (Table 4). The test is classed as cell-based. The note with it: A. baumannii BAA747, read-out: MIC, BAA747. The method in brief:
as §3

The test system of test [10] is K. pneumoniae MXX1232. Description: Antibacterial activity, MIC, resistant strain (Table 4). In kind it is cell-based. The note with it: Klebsiella pneumoniae, MXX1232; resistant K. pneumoniae MMX1232, multi-drug resistant clinical isolate; read-out: MIC, MMX1232. In a few lines: as §3
Test [11] deals with A. baumannii MXX2240. The test is described as above. The note with it: Acinetobacter baumannii, MXX2240; resistant A. baumannii MMX2240, multi-drug resistant clinical isolate; read-out: MIC, MMX2240. In kind it is cell-based. The method in brief: as §3

On to `CCc1c(-c2ccc3c(c2)cc(CN2CCCC(O)C2)n3C)[nH]c(=O)c(C(=O)O)c1O` (stereo not shown) [Cpd 255, 5-ethyl-4-hydroxy-6-(2-((3-hydroxypiperidin-1-yl)methyl)-1-methyl-1H-indol-5-yl)-2-oxo-1,2-dihydropyridine-3-carboxylic acid], for which the MIC in test [1] is 12.5 to 150 µg/mL (≈ 29.4 to 353 µM); in test [2], 12.5 to 150 µg/mL (≈ 29.4 to 353 µM); in [3] it was 12.5 to 150 µg/mL (≈ 29.4 to 353 µM); in test [4], 12.5 to 150 µg/mL (≈ 29.4 to 353 µM); in [5], < 1 µg/mL; in test [6], 3.5 to 12.5 µg/mL (≈ 8.23 to 29.4 µM). In addition, the MIC in test [7] was in the range of 1 to 3.5 µg/mL (≈ 2.35 to 8.23 µM).
Regarding `CCc1c(-c2ccc3c(c2)cc(CN(C)C2CCNCC2)n3C)[nH]c(=O)c(C(=O)O)c1O` [Cpd 261, 5-ethyl-4-hydroxy-6-(1-methyl-2-((methyl(piperidin-4-yl)amino)methyl)-1H-indol-5-yl)-2-oxo-1,2-dihydropyridine-3-carboxylic acid], the MIC lay in the range of 12.5 to 150 µg/mL (≈ 28.5 to 342 µM) in test [1]; 12.5 to 150 µg/mL (≈ 28.5 to 342 µM) in [2]; 12.5 to 150 µg/mL (≈ 28.5 to 342 µM) in test [3]; 3.5 to 12.5 µg/mL (≈ 7.98 to 28.5 µM) in test [4]; 1 to 3.5 µg/mL (≈ 2.28 to 7.98 µM) in [5]; 12.5 to 150 µg/mL (≈ 28.5 to 342 µM) in test [6]. In addition, in test [7], the MIC lay within 3.5 to 12.5 µg/mL (≈ 7.98 to 28.5 µM).
For the compound `CCc1c(-c2ccc3c(c2)c(C#N)c(OC)n3C)[nH]c(=O)c(C(=O)O)c1O` [Cpd 362, 6-(3-cyano-2-methoxy-1-methyl-1H-indol-5-yl)-5-ethyl-4-hydroxy-2-oxo-1,2-dihydropyridine-3-carboxylic acid], the MIC in [2], in test [3], in test [4], in test [8], in [9] and in test [10] was 12.5 to 150 µg/mL (≈ 34 to 408 µM) in each case. The MIC in test [11] fell in the range of 12.5 to 150 µg/mL (≈ 34 to 408 µM); in test [5], 1 to 3.5 µg/mL (≈ 2.72 to 9.53 µM); in [6], 3.5 to 12.5 µg/mL (≈ 9.53 to 34 µM); in test [7], 12.5 to 150 µg/mL (≈ 34 to 408 µM).
On to `CCc1cc(C(=O)O)c(=O)[nH]c1-c1ccc2occc2c1` [Cpd 364, 6-(benzofuran-5-yl)-5-ethyl-2-oxo-1,2-dihydropyridine-3-carboxylic acid], for which the MIC in test [2], in test [3], in test [4], in test [8], in [9] and in [10] was 12.5 to 150 µg/mL (≈ 44.1 to 530 µM) each time. Further, the MIC in test [11] fell in the range of 12.5 to 150 µg/mL (≈ 44.1 to 530 µM); in test [5], 1 to 3.5 µg/mL (≈ 3.53 to 12.4 µM); in test [6] it was 12.5 to 150 µg/mL (≈ 44.1 to 530 µM); in test [7], 12.5 to 150 µg/mL (≈ 44.1 to 530 µM).
On to `CCc1c(-c2ccc3occc3c2)[nH]c(=O)c(C(=O)O)c1O` [Cpd 365, 6-(benzofuran-5-yl)-5-ethyl-4-hydroxy-2-oxo-1,2-dihydropyridine-3-carboxylic acid], for which the MIC in test [2] was in the range of 3.5 to 12.5 µg/mL (≈ 11.7 to 41.8 µM); in [3], 12.5 to 150 µg/mL (≈ 41.8 to 501 µM); in test [4], 3.5 to 12.5 µg/mL (≈ 11.7 to 41.8 µM); in test [8], 12.5 to 150 µg/mL (≈ 41.8 to 501 µM); in test [9], 12.5 to 150 µg/mL (≈ 41.8 to 501 µM); in test [10] it was 12.5 to 150 µg/mL (≈ 41.8 to 501 µM). Moreover, the MIC in test [11] was 1 to 3.5 µg/mL (≈ 3.34 to 11.7 µM); in test [5] it was < 1 µg/mL; in test [6] it was 3.5 to 12.5 µg/mL (≈ 11.7 to 41.8 µM); in [7] it was 12.5 to 150 µg/mL (≈ 41.8 to 501 µM).
Turning to `CCc1cc(C(=O)O)c(=O)[nH]c1-c1ccc2sccc2c1` [Cpd 366, 6-(benzo[b]thiophen-5-yl)-5-ethyl-2-oxo-1,2-dihydropyridine-3-carboxylic acid], the MIC in test [2], in test [3], in [4], in test [8], in [9] and in test [10] was 12.5 to 150 µg/mL (≈ 41.8 to 501 µM) each time. Further, the MIC in [11] is 12.5 to 150 µg/mL (≈ 41.8 to 501 µM); in test [5], < 1 µg/mL; in [6] it was 12.5 to 150 µg/mL (≈ 41.8 to 501 µM); in test [7], 3.5 to 12.5 µg/mL (≈ 11.7 to 41.8 µM).
With `CCc1c(-c2ccc3sccc3c2)[nH]c(=O)c(C(=O)O)c1O` [Cpd 367, 6-(benzo[b]thiophen-5-yl)-5-ethyl-4-hydroxy-2-oxo-1,2-dihydropyridine-3-carboxylic acid], the MIC in test [2] is 12.5 to 150 µg/mL (≈ 39.6 to 476 µM); in test [3] it was 12.5 to 150 µg/mL (≈ 39.6 to 476 µM); in test [4] it was 3.5 to 12.5 µg/mL (≈ 11.1 to 39.6 µM); in test [8], 12.5 to 150 µg/mL (≈ 39.6 to 476 µM); in test [9], 12.5 to 150 µg/mL (≈ 39.6 to 476 µM); in [10] it was 12.5 to 150 µg/mL (≈ 39.6 to 476 µM). The MIC in [11] was 3.5 to 12.5 µg/mL (≈ 11.1 to 39.6 µM); in [5], < 1 µg/mL; in test [6], 1 to 3.5 µg/mL (≈ 3.17 to 11.1 µM); in test [7], 12.5 to 150 µg/mL (≈ 39.6 to 476 µM).
